In brackets after ≈: the same amount, converted by molar mass.
What was measured:
Pediococcus acidilacti = test: agar dilution MIC, lactic acid bacteria; type: cell-based; conditions: Pediococcus acidilacti (mean of 10), brain-heart infusion agar
[1] = system: Leuconostoc pseudomesenteroides; test: agar dilution MIC, lactic acid bacteria; type: cell-based; conditions: brain-heart infusion agar
Stapylococcus aureus = test: mouse protection, experimentally-induced infection; type: in vivo; conditions: mice infected with Stapylococcus aureus, two doses
Lactobacillus confusus = test: agar dilution MIC, lactic acid bacteria; type: cell-based; conditions: Lactobacillus confusus, brain-heart infusion agar
[2] = system: Staphylococcus aureus S13E; type: cell-based
Experimental: (§1) The MIC's were determined using a standard broth micro-dilution assay.

[3] = system: Staphylococcus aureus SA1199B; type: cell-based
Experimental: as §1

Leuconostoc lactis = test: agar dilution MIC, lactic acid bacteria; type: cell-based; conditions: Leuconostoc lactis (mean of 2), brain-heart infusion agar
Leuconostoc citreum = test: agar dilution MIC, lactic acid bacteria; type: cell-based; conditions: brain-heart infusion agar
[4] = system: Streptococcus pneumoniae P1; test: broth micro-dilution MIC; type: cell-based
Experimental: (§2) The formula I compounds have in vitro and in vivo activity against Gram-positive pathogenic bacteria. The MIC's were determined using a standard broth micro-dilution assay.

Entercoccus faecium 180 = test: broth micro-dilution MIC; type: cell-based; conditions: Entercoccus faecium 180
Experimental: as §2

[5] = system: Staphylococcus haemolyticus 415; test: broth micro-dilution MIC; type: cell-based
Experimental: as §2

[6] = system: Staphylococcus haemolyticus 105; test: broth micro-dilution MIC; type: cell-based
Experimental: as §2

Escherichia coli EC14 = test: broth micro-dilution MIC; type: cell-based
Experimental: as §2

Entercoccus faecium 2041 = test: broth micro-dilution MIC; type: cell-based; conditions: Entercoccus faecium 2041
Experimental: as §2

[7] = system: Enterococcus gallinarum 245; test: broth micro-dilution MIC; type: cell-based; conditions: Enterococcus gallinarum 245
Experimental: as §2

[8] = system: vancomycin-susceptible enterococci; test: broth micro-dilution, mean geometric MIC; type: cell-based, Enterococcus faecium and Enterococcus faecalis; conditions: enterococci, 24-hour incubation
Streptococcus pyogenes = test: mouse protection, experimentally-induced infection; type: in vivo; conditions: mice infected with Streptococcus pyogenes, two doses
Pediococcus pentosaceus = test: agar dilution MIC, lactic acid bacteria; type: cell-based; conditions: Pediococcus pentosaceus (mean of 2), brain-heart infusion agar
Streptococcus pneumoniae = test: mouse protection, experimentally-induced infection; type: in vivo; conditions: mice infected with Streptococcus pneumoniae, two doses
[9] = system: Leuconostoc mesenteroides; test: agar dilution MIC, lactic acid bacteria; type: cell-based; conditions: Leuconostoc mesenteroides (mean of 4), brain-heart infusion agar
[10] = system: Staphylococcus aureus 447; test: broth micro-dilution MIC; type: cell-based
Experimental: as §1

[11] = system: Entercoccus faecium 180-1; test: broth micro-dilution MIC; type: cell-based
Experimental: as §1

[12] = system: Staphylococcus aureus 491; test: broth micro-dilution MIC; type: cell-based
Experimental: as §1

[13] = system: Staphylococcus aureus X778; test: broth micro-dilution MIC; type: cell-based
Experimental: as §1

Entercoccus faecium 276 = test: broth micro-dilution MIC; type: cell-based
Experimental: as §1

[14] = system: Streptococcus pyogenes C203; test: broth micro-dilution MIC; type: cell-based
Experimental: as §1

[15] = system: Staphylococcus aureus 446; test: broth micro-dilution MIC; type: cell-based
Experimental: as §1

[16] = system: Staphylococcus aureus SA1199A; test: broth micro-dilution MIC; type: cell-based
Experimental: as §1

[17] = system: Staphylococcus aureus SA1199; test: broth micro-dilution MIC; type: cell-based
Experimental: as §1

[18] = system: vancomycin-resistant enterococci; test: broth micro-dilution, mean geometric MIC; type: cell-based, Enterococcus faecium and Enterococcus faecalis; conditions: enterococci, 24-hour incubation
[19] = system: Staphylococcus epidermidis 270; test: broth micro-dilution MIC; type: cell-based
Experimental: as §2

[20] = system: Staphylococcus aureus X400; test: broth micro-dilution MIC; type: cell-based
Experimental: as §1

[21] = system: Staphylococcus aureus 489; test: broth micro-dilution MIC; type: cell-based
Experimental: as §1

Structure (SMILES) | MIC (Pediococcus acidilacti) [mg/L] | MIC [1] [mg/L] | ED50 (Stapylococcus aureus) [mg/kg/2] | MIC (Lactobacillus confusus) [mg/L] | MIC [2] [mg/L] | MIC [3] [mg/L] | MIC (Leuconostoc lactis) [mg/L] | MIC (Leuconostoc citreum) [mg/L] | MIC (Entercoccus faecium 180) [mg/L] | MIC [5] [mg/L] | MIC [6] [mg/L] | MIC (Entercoccus faecium 2041) [mg/L] | mean geometric MIC, Vancomycin Sensitive Strains [8] [mg/L] | ED50 (Streptococcus pyogenes) [mg/kg/2] | MIC (Pediococcus pentosaceus) [mg/L] | ED50 (Streptococcus pneumoniae) [mg/kg/2] | MIC [9] [mg/L] | MIC [10] [mg/L] | MIC [11] [mg/L] | mean geometric MIC, Vancomycin Resistant Strains [18] [mg/L] | also measured
CNC(CC(C)C)C(=O)NC1C(=O)NC(CC(N)=O)C(=O)NC2C(=O)NC3C(=O)NC(C(=O)NC(C(=O)O)c4cc(O)cc(O)c4-c4cc3ccc4O)C(OC3CC(C)(N)C(O)C(C)O3)c3ccc(c(Cl)c3)Oc3cc2cc(c3OC2OC(CO)C(O)C(O)C2OC2CC(C)(NCc3ccc(OCc4ccccc4)cc3)C(O)C(C)O2)Oc2ccc(cc2Cl)C1O (stereo not drawn) [Compound 5] | 2.8 (≈ 1.57 µM) | 16 (≈ 8.95 µM) | 0.13 | 16 (≈ 8.95 µM) | 1 (≈ 0.559 µM) | ≤ 0.06 | 8.0 (≈ 4.47 µM) | 64 (≈ 35.8 µM) | ≤ 0.06 | 1 (≈ 0.559 µM) | 2 (≈ 1.12 µM) | ≤ 0.06 | 0.072 | 0.039 | 8.0 (≈ 4.47 µM) | 0.036 | 8 (≈ 4.47 µM) | 0.5 (≈ 0.28 µM) | ≤ 0.06 | 0.50 | MIC [4]: ≤ 0.06 mg/L; MIC (Escherichia coli EC14): > 64 mg/L; MIC [7]: ≤ 0.06 mg/L; MIC [12]: 0.5 mg/L (≈ 0.28 µM); MIC [13]: 0.5 mg/L (≈ 0.28 µM); MIC (Entercoccus faecium 276): ≤ 0.06 mg/L; MIC [14]: ≤ 0.06 mg/L; MIC [15]: 1 mg/L (≈ 0.559 µM); MIC [16]: ≤ 0.06 mg/L; MIC [17]: 1 mg/L (≈ 0.559 µM)
CNC(CC(C)C)C(=O)NC1C(=O)NC(CC(N)=O)C(=O)NC2C(=O)NC3C(=O)NC(C(=O)NC(C(=O)O)c4cc(O)cc(O)c4-c4cc3ccc4O)C(OC3CC(C)(N)C(O)C(C)O3)c3ccc(c(Cl)c3)Oc3cc2cc(c3OC2OC(CO)C(O)C(O)C2OC2CC(C)(NCc3ccc(Cc4ccccc4)cc3)C(O)C(C)O2)Oc2ccc(cc2Cl)C1O (stereo not drawn) [Compound 50] | 51 (≈ 28.8 µM) | 128 (≈ 72.2 µM) | 0.1 | 64 (≈ 36.1 µM) | – | – | 64 (≈ 36.1 µM) | 128 (≈ 72.2 µM) | – | – | – | – | 0.054 | 0.047 | 64 (≈ 36.1 µM) | 0.057 | 64 (≈ 36.1 µM) | – | – | 0.12 | –
CNC(CC(C)C)C(=O)NC1C(=O)NC(CC(N)=O)C(=O)NC2C(=O)NC3C(=O)NC(C(=O)NC(C(=O)O)c4cc(O)cc(O)c4-c4cc3ccc4O)C(OC3CC(C)(N)C(O)C(C)O3)c3ccc(c(Cl)c3)Oc3cc2cc(c3OC2OC(CO)C(O)C(O)C2OC2CC(C)(NCc3ccc(-c4ccc(-c5ccccc5)cc4)cc3)C(O)C(C)O2)Oc2ccc(cc2Cl)C1O (stereo not drawn) [Compound 36] | 9.2 (≈ 5.01 µM) | 32 (≈ 17.4 µM) | 0.19 | 32 (≈ 17.4 µM) | 2 (≈ 1.09 µM) | 4 (≈ 2.18 µM) | 16 (≈ 8.72 µM) | 32 (≈ 17.4 µM) | 0.25 (≈ 0.136 µM) | 8 (≈ 4.36 µM) | 4 (≈ 2.18 µM) | 1 (≈ 0.545 µM) | 0.21 | 0.28 | 16 (≈ 8.72 µM) | 0.31 | 16 (≈ 8.72 µM) | 2 (≈ 1.09 µM) | ≤ 0.06 | 0.25 | MIC [19]: 2 mg/L (≈ 1.09 µM); MIC [20]: 4 mg/L (≈ 2.18 µM); MIC [12]: 1 mg/L (≈ 0.545 µM); MIC [13]: 2 mg/L (≈ 1.09 µM); MIC (Entercoccus faecium 276): 2 mg/L (≈ 1.09 µM); MIC [15]: 8 mg/L (≈ 4.36 µM); MIC [21]: 2 mg/L (≈ 1.09 µM); MIC [17]: 4 mg/L (≈ 2.18 µM)
CNC(CC(C)C)C(=O)NC1C(=O)NC(CC(N)=O)C(=O)NC2C(=O)NC3C(=O)NC(C(=O)NC(C(=O)O)c4cc(O)cc(O)c4-c4cc3ccc4O)C(OC3CC(C)(N)C(O)C(C)O3)c3ccc(c(Cl)c3)Oc3cc2cc(c3OC2OC(CO)C(O)C(O)C2OC2CC(C)(NCc3ccc(C=Cc4ccccc4)cc3)C(O)C(C)O2)Oc2ccc(cc2Cl)C1O (stereo not drawn) [Compound 29] | 4.0 (≈ 2.24 µM) | 16 (≈ 8.97 µM) | 0.088 | 8 (≈ 4.48 µM) | 1 (≈ 0.56 µM) | 0.25 (≈ 0.14 µM) | 5.7 (≈ 3.19 µM) | 32 (≈ 17.9 µM) | 0.25 (≈ 0.14 µM) | 1 (≈ 0.56 µM) | 4 (≈ 2.24 µM) | 0.25 (≈ 0.14 µM) | 0.031 | 0.1 | 8.0 (≈ 4.48 µM) | 0.054 | 6.7 (≈ 3.75 µM) | 0.25 (≈ 0.14 µM) | ≤ 0.06 | 0.21 | MIC [19]: 0.5 mg/L (≈ 0.28 µM); MIC [7]: 0.25 mg/L (≈ 0.14 µM); MIC [20]: 0.25 mg/L (≈ 0.14 µM); MIC [12]: 0.25 mg/L (≈ 0.14 µM); MIC [13]: ≤ 0.06 mg/L; MIC (Entercoccus faecium 276): 0.25 mg/L (≈ 0.14 µM); MIC [15]: 1 mg/L (≈ 0.56 µM); MIC [16]: ≤ 0.06 mg/L; MIC [17]: 0.25 mg/L (≈ 0.14 µM)
CNC(CC(C)C)C(=O)NC1C(=O)NC(CC(N)=O)C(=O)NC2C(=O)NC3C(=O)NC(C(=O)NC(C(=O)O)c4cc(O)cc(O)c4-c4cc3ccc4O)C(OC3CC(C)(N)C(O)C(C)O3)c3ccc(c(Cl)c3)Oc3cc2cc(c3OC2OC(CO)C(O)C(O)C2OC2CC(C)(NCc3cccc(Oc4ccccc4)c3)C(O)C(C)O2)Oc2ccc(cc2Cl)C1O (stereo not drawn) [Compound 49] | 55 (≈ 31 µM) | 128 (≈ 72.1 µM) | 0.053 | 64 (≈ 36.1 µM) | – | – | 64 (≈ 36.1 µM) | 128 (≈ 72.1 µM) | – | – | – | – | 0.083 | 0.045 | 64 (≈ 36.1 µM) | < 0.031 | 64 (≈ 36.1 µM) | – | – | 0.71 | –
CNC(CC(C)C)C(=O)NC1C(=O)NC(CC(N)=O)C(=O)NC2C(=O)NC3C(=O)NC(C(=O)NC(C(=O)O)c4cc(O)cc(O)c4-c4cc3ccc4O)C(OC3CC(C)(N)C(O)C(C)O3)c3ccc(c(Cl)c3)Oc3cc2cc(c3OC2OC(CO)C(O)C(O)C2OC2CC(C)(NCc3ccc(Oc4ccccc4)cc3)C(O)C(C)O2)Oc2ccc(cc2Cl)C1O (stereo not drawn) [Compound 4, p-phenoxybenzyl·A82846B] | 7.5 (≈ 4.23 µM) | 32 (≈ 18 µM) | 0.36 | 32 (≈ 18 µM) | ≤ 0.06 | ≤ 0.06 | 16 (≈ 9.02 µM) | 128 (≈ 72.1 µM) | 0.125 (≈ 0.0704 µM) | 0.5 (≈ 0.282 µM) | 0.5 (≈ 0.282 µM) | ≤ 0.06 | 0.062 | 0.012 | 16 (≈ 9.02 µM) | 0.036 | 16 (≈ 9.02 µM) | 0.25 (≈ 0.141 µM) | ≤ 0.06 | 0.50 | MIC [19]: ≤ 0.06 mg/L; MIC [4]: ≤ 0.06 mg/L; MIC (Escherichia coli EC14): > 64 mg/L; MIC [7]: ≤ 0.06 mg/L; MIC [20]: ≤ 0.06 mg/L; MIC [12]: ≤ 0.06 mg/L; MIC [13]: ≤ 0.06 mg/L; MIC (Entercoccus faecium 276): ≤ 0.06 mg/L; MIC [14]: ≤ 0.06 mg/L; MIC [15]: ≤ 0.06 mg/L; MIC [21]: ≤ 0.06 mg/L; MIC [16]: ≤ 0.06 mg/L; MIC [17]: ≤ 0.06 mg/L

Source: patent publication US5840684A, “Glycopeptide antibiotic derivatives” (Eli Lilly and Company, priority 1995, dated 1998)
